Test results: ChEMBL document CHEMBL1201862, “PubChem BioAssay data set” (2004)
Calls of active or inactive are those of the source.

Tests used:
NADPH oxidase 1 = target: T1, NADPH oxidase 1 (Homo sapiens, UniProt Q9Y5S8); test: Late-stage luminescence-based cell-based dose response assay to identify inhibitors of NADPH oxidase 1 (NOX1): Synthesized analogs.; assay type: functional
T1 sequence (Q9Y5S8 whole entry): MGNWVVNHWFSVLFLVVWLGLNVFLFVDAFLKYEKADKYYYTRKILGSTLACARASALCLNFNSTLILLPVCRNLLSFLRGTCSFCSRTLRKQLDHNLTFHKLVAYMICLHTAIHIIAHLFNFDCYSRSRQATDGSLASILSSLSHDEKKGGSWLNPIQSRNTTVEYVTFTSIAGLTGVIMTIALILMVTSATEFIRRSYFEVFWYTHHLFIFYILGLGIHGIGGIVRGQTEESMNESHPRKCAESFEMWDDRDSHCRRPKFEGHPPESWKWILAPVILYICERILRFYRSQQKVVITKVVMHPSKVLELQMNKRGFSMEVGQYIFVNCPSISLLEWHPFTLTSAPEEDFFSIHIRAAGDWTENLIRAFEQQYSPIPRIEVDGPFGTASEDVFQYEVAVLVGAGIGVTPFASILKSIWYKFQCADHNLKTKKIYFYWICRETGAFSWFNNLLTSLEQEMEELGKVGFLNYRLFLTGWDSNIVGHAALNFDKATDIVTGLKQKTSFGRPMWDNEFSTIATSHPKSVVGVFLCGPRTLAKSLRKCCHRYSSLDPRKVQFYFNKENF

Aminopeptidase N = target: T2, Aminopeptidase N (Plasmodium falciparum FcB1/Columbia, UniProt O96935); test: P. falciparum M1AAP inhibitors, biochemical, fluorogenic H-Leu-NHMec substrate, 1536-well (AID 1445); set-up: species or system Plasmodium falciparum 3D7, 3D7
T2 sequence (O96935 whole entry): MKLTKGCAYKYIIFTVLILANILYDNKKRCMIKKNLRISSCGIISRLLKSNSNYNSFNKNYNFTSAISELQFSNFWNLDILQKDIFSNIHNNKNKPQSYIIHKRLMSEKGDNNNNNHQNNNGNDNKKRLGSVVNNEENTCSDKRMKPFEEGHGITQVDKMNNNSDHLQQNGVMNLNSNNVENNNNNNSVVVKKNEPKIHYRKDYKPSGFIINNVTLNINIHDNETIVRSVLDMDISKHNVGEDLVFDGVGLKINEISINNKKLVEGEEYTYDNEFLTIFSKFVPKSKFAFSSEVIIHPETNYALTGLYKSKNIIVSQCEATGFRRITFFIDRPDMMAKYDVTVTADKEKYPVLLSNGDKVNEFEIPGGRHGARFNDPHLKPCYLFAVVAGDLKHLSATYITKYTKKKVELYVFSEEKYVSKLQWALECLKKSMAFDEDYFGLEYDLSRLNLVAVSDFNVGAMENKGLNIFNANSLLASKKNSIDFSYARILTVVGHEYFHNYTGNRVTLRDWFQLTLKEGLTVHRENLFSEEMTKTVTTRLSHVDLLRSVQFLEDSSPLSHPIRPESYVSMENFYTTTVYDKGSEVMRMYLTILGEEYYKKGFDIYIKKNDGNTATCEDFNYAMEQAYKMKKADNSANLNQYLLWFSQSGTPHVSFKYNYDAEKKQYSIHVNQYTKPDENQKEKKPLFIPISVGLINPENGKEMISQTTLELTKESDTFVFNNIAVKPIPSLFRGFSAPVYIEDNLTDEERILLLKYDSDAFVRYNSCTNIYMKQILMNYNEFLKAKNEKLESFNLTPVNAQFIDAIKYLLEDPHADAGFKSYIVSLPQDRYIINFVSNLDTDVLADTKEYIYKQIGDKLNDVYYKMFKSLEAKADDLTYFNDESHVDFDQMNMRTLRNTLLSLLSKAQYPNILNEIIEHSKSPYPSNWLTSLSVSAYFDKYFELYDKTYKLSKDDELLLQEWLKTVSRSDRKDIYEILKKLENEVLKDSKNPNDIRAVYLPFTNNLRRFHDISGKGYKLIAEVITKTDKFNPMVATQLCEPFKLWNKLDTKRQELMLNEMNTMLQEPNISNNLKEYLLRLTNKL

Large T antigen = Large T antigen (Simian virus 40, UniProt P03070); assay type: functional, Betapolyomavirus macacae;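 further: Confirmatory-stage PubChem screen for compounds that inhibit SV40 T antigen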
Large T antigen, sequence (P03070 whole entry): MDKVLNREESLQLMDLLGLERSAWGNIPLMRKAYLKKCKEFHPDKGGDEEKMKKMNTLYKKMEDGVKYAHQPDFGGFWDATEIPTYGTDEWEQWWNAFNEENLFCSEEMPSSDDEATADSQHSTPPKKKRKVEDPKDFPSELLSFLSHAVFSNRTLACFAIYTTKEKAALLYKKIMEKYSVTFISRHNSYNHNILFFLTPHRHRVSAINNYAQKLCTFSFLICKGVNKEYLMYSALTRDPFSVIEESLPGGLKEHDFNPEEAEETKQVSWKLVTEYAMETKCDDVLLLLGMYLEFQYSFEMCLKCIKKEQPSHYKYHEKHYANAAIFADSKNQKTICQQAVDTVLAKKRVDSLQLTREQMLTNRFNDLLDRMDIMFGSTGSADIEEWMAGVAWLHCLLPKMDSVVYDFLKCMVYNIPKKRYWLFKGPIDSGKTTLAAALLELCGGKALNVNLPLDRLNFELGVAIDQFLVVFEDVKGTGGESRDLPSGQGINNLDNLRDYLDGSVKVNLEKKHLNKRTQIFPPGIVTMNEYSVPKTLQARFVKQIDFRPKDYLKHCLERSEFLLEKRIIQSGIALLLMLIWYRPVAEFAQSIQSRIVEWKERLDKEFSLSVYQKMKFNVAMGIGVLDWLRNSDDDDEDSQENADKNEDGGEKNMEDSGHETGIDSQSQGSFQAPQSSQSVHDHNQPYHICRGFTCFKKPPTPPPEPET

Nonstructural protein 1 = Nonstructural protein 1 (Influenza A virus, UniProt Q194T2); assay type: functional, Influenza A virus (A/California/07/2009(H1N1))
Nonstructural protein 1, sequence (Q194T2 whole entry): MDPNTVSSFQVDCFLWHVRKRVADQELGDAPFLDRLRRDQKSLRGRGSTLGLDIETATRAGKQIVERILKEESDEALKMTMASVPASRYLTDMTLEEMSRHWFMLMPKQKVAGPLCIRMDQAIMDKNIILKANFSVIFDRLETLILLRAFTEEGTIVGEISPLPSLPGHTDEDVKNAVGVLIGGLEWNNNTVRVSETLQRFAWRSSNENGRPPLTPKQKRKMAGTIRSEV

[1] = target: T3, Replicative DNA helicase DnaB (Mycobacterium tuberculosis, UniProt P9WMR3); test: DnaB intein splicing inhibitors, dose response, biochemical, cell-free fluorescence (AID 449749); assay type: functional
T3 sequence (P9WMR3 whole entry): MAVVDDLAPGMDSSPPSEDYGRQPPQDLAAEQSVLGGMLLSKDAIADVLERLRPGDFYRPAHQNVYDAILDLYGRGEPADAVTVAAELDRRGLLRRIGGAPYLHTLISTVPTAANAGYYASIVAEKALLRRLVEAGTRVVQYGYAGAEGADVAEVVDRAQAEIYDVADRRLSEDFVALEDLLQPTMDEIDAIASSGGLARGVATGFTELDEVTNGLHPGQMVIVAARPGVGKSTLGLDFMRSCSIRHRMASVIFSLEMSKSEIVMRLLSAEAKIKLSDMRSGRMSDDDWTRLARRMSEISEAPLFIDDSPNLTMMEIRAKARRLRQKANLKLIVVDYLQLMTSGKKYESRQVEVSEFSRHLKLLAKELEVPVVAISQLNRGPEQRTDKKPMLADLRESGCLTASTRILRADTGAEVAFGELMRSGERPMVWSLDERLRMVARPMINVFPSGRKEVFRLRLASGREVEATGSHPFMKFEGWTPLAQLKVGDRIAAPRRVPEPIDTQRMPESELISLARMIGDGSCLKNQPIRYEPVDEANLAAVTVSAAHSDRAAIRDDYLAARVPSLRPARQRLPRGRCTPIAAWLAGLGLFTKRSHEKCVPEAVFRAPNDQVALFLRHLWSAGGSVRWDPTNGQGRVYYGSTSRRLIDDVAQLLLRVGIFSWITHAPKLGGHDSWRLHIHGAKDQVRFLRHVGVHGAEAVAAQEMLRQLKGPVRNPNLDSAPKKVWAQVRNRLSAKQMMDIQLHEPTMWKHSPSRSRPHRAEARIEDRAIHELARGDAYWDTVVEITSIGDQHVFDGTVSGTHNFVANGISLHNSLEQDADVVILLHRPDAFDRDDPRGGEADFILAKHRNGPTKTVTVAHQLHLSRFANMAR

Protein RecA = target: T4, Protein RecA (Mycobacterium tuberculosis, UniProt P9WHJ3); test: Fluorescence Cell-Free Homogeneous Dose Retest to Identify Inhibitors of RecA-Intein Splicing Activity. [Related pubchem assays (depositor defined):AID2097, AID2223, AID489010, AID492950]; assay type: functional
T4 sequence (P9WHJ3 whole entry): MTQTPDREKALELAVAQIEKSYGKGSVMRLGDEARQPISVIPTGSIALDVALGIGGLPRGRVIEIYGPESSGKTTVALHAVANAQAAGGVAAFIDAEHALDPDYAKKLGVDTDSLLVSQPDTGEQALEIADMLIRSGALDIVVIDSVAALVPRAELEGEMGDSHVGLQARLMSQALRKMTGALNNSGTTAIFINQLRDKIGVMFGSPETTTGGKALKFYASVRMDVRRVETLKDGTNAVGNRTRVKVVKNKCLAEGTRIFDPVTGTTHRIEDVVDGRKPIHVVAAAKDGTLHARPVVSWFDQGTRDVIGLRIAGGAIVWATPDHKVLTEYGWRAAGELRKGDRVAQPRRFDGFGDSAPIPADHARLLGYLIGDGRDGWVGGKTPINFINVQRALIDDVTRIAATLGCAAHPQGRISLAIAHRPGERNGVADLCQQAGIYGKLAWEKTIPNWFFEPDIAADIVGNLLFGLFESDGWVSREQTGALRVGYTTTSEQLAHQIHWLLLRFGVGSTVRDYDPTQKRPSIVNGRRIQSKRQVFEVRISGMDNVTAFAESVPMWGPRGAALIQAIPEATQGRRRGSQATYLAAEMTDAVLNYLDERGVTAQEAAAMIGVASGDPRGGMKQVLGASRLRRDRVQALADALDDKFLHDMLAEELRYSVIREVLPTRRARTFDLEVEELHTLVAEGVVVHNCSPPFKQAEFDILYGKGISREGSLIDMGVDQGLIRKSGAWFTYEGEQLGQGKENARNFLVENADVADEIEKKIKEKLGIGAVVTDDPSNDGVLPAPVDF

[2] = target: 26S proteasome non-ATPase regulatory subunit 14 (Homo sapiens, UniProt O00487); test: inhibition of proteasome subunit RPN11 – biochemical, fluorescence polarization, uHTS hits, confirmation (AID 602368); assay type: functional
26S proteasome non-ATPase regulatory subunit 14, sequence (O00487 whole entry): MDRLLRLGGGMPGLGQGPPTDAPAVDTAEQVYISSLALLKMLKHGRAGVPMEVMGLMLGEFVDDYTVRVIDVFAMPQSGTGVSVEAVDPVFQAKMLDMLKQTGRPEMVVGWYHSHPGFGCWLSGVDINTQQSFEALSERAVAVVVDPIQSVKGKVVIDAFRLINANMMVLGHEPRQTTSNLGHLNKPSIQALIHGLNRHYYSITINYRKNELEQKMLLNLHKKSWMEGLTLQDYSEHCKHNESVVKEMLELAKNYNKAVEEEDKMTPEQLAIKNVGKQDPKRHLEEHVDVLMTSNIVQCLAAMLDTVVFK

[3] = target: 72 kDa type IV collagenase (Homo sapiens, UniProt P08253); test: Dose Response validation of uHTS RPN11 inhibitor hits using a MMP-2 Fluorescence assay.; assay type: functional
72 kDa type IV collagenase, sequence (P08253 whole entry): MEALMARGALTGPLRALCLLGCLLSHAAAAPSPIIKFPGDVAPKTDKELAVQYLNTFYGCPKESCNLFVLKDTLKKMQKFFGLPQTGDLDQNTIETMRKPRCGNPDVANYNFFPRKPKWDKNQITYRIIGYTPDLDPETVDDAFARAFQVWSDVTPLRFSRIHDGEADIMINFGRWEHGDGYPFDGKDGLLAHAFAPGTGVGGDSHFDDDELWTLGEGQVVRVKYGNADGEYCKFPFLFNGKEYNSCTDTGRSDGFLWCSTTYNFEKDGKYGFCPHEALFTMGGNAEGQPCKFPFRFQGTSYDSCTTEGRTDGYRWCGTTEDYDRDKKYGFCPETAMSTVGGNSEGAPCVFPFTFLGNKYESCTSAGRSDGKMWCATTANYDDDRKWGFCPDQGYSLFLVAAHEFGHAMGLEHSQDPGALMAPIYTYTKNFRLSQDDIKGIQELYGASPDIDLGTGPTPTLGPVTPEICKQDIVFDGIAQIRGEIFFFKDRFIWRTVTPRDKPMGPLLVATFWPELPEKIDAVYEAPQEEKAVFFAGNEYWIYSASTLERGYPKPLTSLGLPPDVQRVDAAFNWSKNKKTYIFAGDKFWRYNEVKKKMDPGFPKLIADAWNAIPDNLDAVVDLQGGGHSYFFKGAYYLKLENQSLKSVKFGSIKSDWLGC

Prothrombin = Prothrombin (Bos taurus, UniProt P00735); test: thrombin inhibition, dose response, biochemical, fluorescence polarization, uHTS hits (AID 602369); assay type: functional
[4] = target: Matrix metalloproteinase-14 (Homo sapiens, UniProt P50281); test: Dose Response confirmation of uHTS hits for a small molecule inhibitors of MT1-MMP activation in a fluorescence assay set 1.; assay type: functional
[5] = THP-1 cell cytotoxicity, dose response, cytotoxicity control for Vif-APOBEC3G degradation inhibitor project, THP-1 cells (AID 1117359); assay type: functional; conditions: Human immunodeficiency virus 1, THP-1
cells [6] = assay type: functional, cell-based
cells [7] = assay type: functional, cell-based; remark: listed apart in the source
Protein Tat = Protein Tat (Human immunodeficiency virus type 1 group M subtype B (isolate HXB2)(HIV-1), UniProt P04608); assay type: functional;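 further: tat binding to TAR RNA read out by fluorescence polarization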
Protein Tat, sequence (P04608 whole entry): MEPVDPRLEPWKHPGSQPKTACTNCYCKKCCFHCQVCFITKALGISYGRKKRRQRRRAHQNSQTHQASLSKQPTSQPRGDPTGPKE

[8] = target: T5, Heat shock factor protein 1 (Mus musculus, UniProt P38532); test: inhibition of MG132-induced HSE-luciferase signal, confirmation, cell-based, NIH3T3, luminescence, dose retest (AID 2382); assay type: functional;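 further: NIH3T3 fibroblasts with HSF1-driven luciferase reporter stressed by proteasome inhibitor MG132; luminescence from HSF1-driven luciferase expression after 8 hours of MG132 stress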
T5 sequence (P38532 whole entry): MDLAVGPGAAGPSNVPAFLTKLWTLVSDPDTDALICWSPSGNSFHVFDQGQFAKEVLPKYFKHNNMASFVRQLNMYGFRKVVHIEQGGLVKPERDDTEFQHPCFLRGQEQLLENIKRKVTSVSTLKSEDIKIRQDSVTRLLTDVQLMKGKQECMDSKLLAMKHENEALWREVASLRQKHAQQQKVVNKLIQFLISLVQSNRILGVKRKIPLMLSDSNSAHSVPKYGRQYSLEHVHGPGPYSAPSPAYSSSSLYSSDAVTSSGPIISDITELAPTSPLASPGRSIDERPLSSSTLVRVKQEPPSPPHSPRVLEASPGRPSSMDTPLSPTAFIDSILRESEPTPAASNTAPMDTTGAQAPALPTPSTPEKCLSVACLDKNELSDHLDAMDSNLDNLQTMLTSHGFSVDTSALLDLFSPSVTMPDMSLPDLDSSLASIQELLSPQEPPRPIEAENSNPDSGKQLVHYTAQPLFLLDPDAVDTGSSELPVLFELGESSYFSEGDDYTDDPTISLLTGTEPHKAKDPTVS

[9] = inhibitors of intracellular T. cruzi replication, confirmation, NIH3T3 host cells, beta-gal luminescence (AID 2044); assay type: functional, cell-based;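 further: intracellular parasites grown in NIH/3T3 mouse fibroblasts as host cells; luminescent beta-galactosidase reporter signal from transgenic T. cruzi replicating inside host cells; inhibitors lower the luminescence signal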
[10] = microbe, parasite or virus in culture; assay type: functional; conditions: Mycobacterium tuberculosis
[11] = cytotoxicity toward NIH3T3 fibroblasts, dose response, counter-screen, cell-based, ATP luminescence, mouse fibroblasts (AID 2010); assay type: functional;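 further: cells exposed to compound for about 90 hours before reading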
[12] = target: Heat shock protein HSP 90-alpha (Homo sapiens, UniProt P07900); test: Luminescence-based dose response biochemical high throughput screening assay for inhibitors of the Heat Shock Protein 90 (HSP90). [Related pubchem assays: 1831 (Summary AID.), 1846 (Confirmation screen.), 1789 (Primary screen.)]
[13] = THP-1 cell cytotoxicity, dose response, cytotoxicity control for non-replicating M. tuberculosis project (AID 489025); assay type: functional
cells [14] = assay type: functional

With `CC(=NNC(=O)c1ccc(O)cc1)c1ccc2c(c1)Nc1ccccc1S2` the IC50 (NADPH oxidase 1) was 0.382 µM (active).
With `CCN(CC)c1ccc(/C=C2\C(=O)N(c3nnc(C)c(O)n3)N=C2C)cc1` the IC50 (Aminopeptidase N) was 42.6 µM (active), the IC50 (Large T antigen) was 54.1 µM (active) and the IC50 (Nonstructural protein 1) was 12.6 µM (active). The AC50 [1] was 6.6 µM (active), the EC50 (Protein RecA) was 2.08 µM (active) and the IC50 [2] was 49.4 µM (active). The IC50 [3] was 96 µM (active), the IC50 (Prothrombin) was 49.9 µM (active) and the IC50 [4] was 32.8 µM (inactive). For the same compound, the CC50 [5] was 25.6 µM (active).
With `COC(=O)/C(=C(/F)SCC(C)=O)C(F)(F)F` the EC50 (cells [6]) was > 350 µM (not active), the EC50 (cells [7]) was > 350 µM (not active) and the IC50 (Protein Tat) was > 100 µM (active).
For `COc1cccc(-c2cc3nc4c(c(NCC(C)(C)CN(C)C)n3n2)CCCC4)c1`, the EC50 [8] was 0.775 µM (active), the EC50 [9] was 0.487 µM (active) and the CC50 [10] was 34.2 µM (active). The EC50 [11] was > 60 µM (not active), the IC50 [12] was 2.39 µM (active) and the CC50 [13] was 28.9 µM (active). The IC50 (cells [14]) was 19.2 µM (active).
